From ChEMBL document CHEMBL3044874, “Synthesis and characterization of some heterocyclic schiff bases: potential anticonvulsant agents” (Med Chem Res, 2011)
Calls of active or inactive are those of the source. The calls are words filed in the database; no cut-off is given here.

What was measured:
Mus musculus [1] = test: Anticonvulsant activity in Mus musculus Swiss albino (mouse) assessed as protection against strychnine-induced seizure at 300 mg/kg, ip measured at 4 hr; format: functional, organism-based; set-up: dose 300 mg/kg
Mus musculus [2] = test: Neurotoxicity against Mus musculus Swiss albino (mouse) at 300 mg/kg, ip measured at 0.5 hr by rota rod test; format: toxicity, organism-based; set-up: dose 300 mg/kg, route intraperitoneal; settings: in vivo
Mus musculus [3] = test: Anticonvulsant activity in Mus musculus Swiss albino (mouse) assessed as protection against strychnine-induced seizure at 300 mg/kg, ip; format: functional, organism-based; set-up: dose 300 mg/kg
Mus musculus [4] = test: Anticonvulsant activity in ip dosed Mus musculus Swiss albino (mouse) assessed as protection against maximal electroshock-induced seizure; format: functional
Rattus norvegicus [5] = test: Anticonvulsant activity in Rattus norvegicus Wistar (rat) assessed as protection against maximal electroshock-induced seizure at 30 mg/kg, po measured at 0.25 hr; format: functional, organism-based; set-up: dose 30 mg/kg
Mus musculus [6] = test: Anticonvulsant activity in ip dosed Mus musculus Swiss albino (mouse) assessed as protection against maximal electroshock-induced seizure at 0.5 hr; format: functional; settings: read-out: MED
Mus musculus [7] = test: Anticonvulsant activity in Mus musculus Swiss albino (mouse) assessed as protection against pentylenetetrazole-induced seizure at 300 mg/kg, ip measured at 0.5 hr; format: functional, organism-based; set-up: dose 300 mg/kg
Rattus norvegicus [8] = test: Anticonvulsant activity in Rattus norvegicus Wistar (rat) assessed as protection against maximal electroshock-induced seizure at 30 mg/kg, po measured at 2 hr; format: functional, organism-based; set-up: dose 30 mg/kg
Mus musculus [9] = test: Anticonvulsant activity in ip dosed Mus musculus Swiss albino (mouse) assessed as protection against maximal electroshock-induced seizure at 4 hr; format: functional; settings: read-out: MED
Mus musculus [10] = test: Neurotoxicity against Mus musculus Swiss albino (mouse) at 300 mg/kg, ip measured at 4 hr by rota rod test; format: toxicity, organism-based; set-up: dose 300 mg/kg, route intraperitoneal; settings: in vivo
Rattus norvegicus [11] = test: Anticonvulsant activity in Rattus norvegicus Wistar (rat) assessed as protection against maximal electroshock-induced seizure at 30 mg/kg, po measured at 4 hr; format: functional, organism-based; set-up: dose 30 mg/kg
Rattus norvegicus [12] = test: Anticonvulsant activity in Rattus norvegicus Wistar (rat) assessed as protection against maximal electroshock-induced seizure at 30 mg/kg, po measured at 1 hr; format: functional, organism-based; set-up: dose 30 mg/kg
Mus musculus [13] = test: Anticonvulsant activity in Mus musculus Swiss albino (mouse) assessed as protection against strychnine-induced seizure at 300 mg/kg, ip measured at 0.5 hr; format: functional, organism-based; set-up: dose 300 mg/kg
[14] = Protection index, ratio TD50 for neurotoxicity to ED50 for protection against maximal electroshock-induced seizure in Mus musculus Swiss albino (mouse); format: toxicity, organism-based; settings: in vivo, read-out: Ratio TD50/ED50
Mus musculus [15] = test: Anticonvulsant activity in Mus musculus Swiss albino (mouse) assessed as protection against pentylenetetrazole-induced seizure at 300 mg/kg, ip; format: functional, organism-based; set-up: dose 300 mg/kg
[16] = Neurotoxicity against ip dosed Mus musculus Swiss albino (mouse) by rota rod test; format: toxicity, organism-based; settings: in vivo
Rattus norvegicus [17] = test: Anticonvulsant activity in Rattus norvegicus Wistar (rat) assessed as protection against maximal electroshock-induced seizure at 30 mg/kg, po measured at 0.5 hr; format: functional, organism-based; set-up: dose 30 mg/kg
Mus musculus [18] = test: Anticonvulsant activity in Mus musculus Swiss albino (mouse) assessed as protection against pentylenetetrazole-induced seizure at 300 mg/kg, ip measured at 4 hr; format: functional, organism-based; set-up: dose 300 mg/kg
Mus musculus [19] = test: Neurotoxicity against ip dosed Mus musculus Swiss albino (mouse) at 4 hr by rota rod test; format: toxicity, organism-based; settings: in vivo
Mus musculus [20] = test: Anticonvulsant activity in ip dosed Mus musculus Swiss albino (mouse) assessed as protection against strychnine-induced seizure at 4 hr; format: functional; settings: read-out: MED
Mus musculus [21] = test: Anticonvulsant activity in ip dosed Mus musculus Swiss albino (mouse) assessed as protection against strychnine-induced seizure at 0.5 hr; format: functional; settings: read-out: MED
Mus musculus [22] = test: Neurotoxicity against ip dosed Mus musculus Swiss albino (mouse) at 0.5 hr by rota rod test; format: toxicity, organism-based; settings: in vivo
Mus musculus [23] = test: Anticonvulsant activity in ip dosed Mus musculus Swiss albino (mouse) assessed as protection against pentylenetetrazole-induced seizure; format: functional
Mus musculus [24] = test: Anticonvulsant activity in ip dosed Mus musculus Swiss albino (mouse) assessed as protection against strychnine-induced seizure; format: functional
Mus musculus [25] = test: Anticonvulsant activity in ip dosed Mus musculus Swiss albino (mouse) assessed as protection against pentylenetetrazole-induced seizure at 0.5 hr; format: functional; settings: read-out: MED
Mus musculus [26] = test: Anticonvulsant activity in ip dosed Mus musculus Swiss albino (mouse) assessed as protection against pentylenetetrazole-induced seizure at 4 hr; format: functional; settings: read-out: MED

SMILES	Activity (Mus musculus [1])	Activity (Mus musculus [3])	ED50 (Mus musculus [4]) [mg/kg]	Activity (Rattus norvegicus [5])	minimal effective dose (Mus musculus [6]) [mg/kg]	Activity (Mus musculus [7])	Activity (Rattus norvegicus [8])	minimal effective dose (Mus musculus [9]) [mg/kg]	Activity (Mus musculus [10])	Activity (Rattus norvegicus [11])	Activity (Rattus norvegicus [12])	selectivity ratio [14]	Activity (Mus musculus [15])	TD50 [16] [mg/kg]	Activity (Rattus norvegicus [17])	Activity (Mus musculus [18])	MTC (Mus musculus [19]) [mg/kg]	minimal effective dose (Mus musculus [20]) [mg/kg]	minimal effective dose (Mus musculus [21]) [mg/kg]	MTC (Mus musculus [22]) [mg/kg]	other results
c1ccc(C(=NCc2cccnc2)c2ccccc2)cc1	inactive	inactive	9.13	Active	30	inactive	inactive	30	Non-toxic	Active	Active	> 10	inactive	> 500	Active	inactive					Activity (Mus musculus [2]): Non-toxic; Activity (Mus musculus [13]): inactive
C/C(=N\Cc1cccnc1)c1cccc(N)c1		inactive	8.64	Active	30	inactive	Active	30		Active	Active	6.97	inactive	60.2	Active	inactive	100	100	30	100	
CCC1(c2ccccc2)C(=O)NC(=O)NC1=O [PHENOBARBITAL]		inactive	21.8																		ED50 (Mus musculus [23]): 13.2 mg/kg
Clc1ccccc1/C=N/Cc1cccnc1			11.7	Active	30	inactive	Active	30	Non-toxic	Active	Active	17.3	inactive	202	Active	inactive		100	100	300	ED50 (Mus musculus [24]): 93.6 mg/kg
OC(/C(=N\Cc1cccnc1)c1ccccc1)c1ccccc1 (stereo unspecified)	inactive		20.8	Active	30		Active	30		inactive	Active	0.57	inactive	11.9	Active	inactive	30		100	30	minimal effective dose (Mus musculus [25]): 300 mg/kg; ED50 (Mus musculus [24]): 106 mg/kg
COc1ccccc1/C=N/Cc1cccnc1	inactive	inactive	11.7	Active	30	inactive	Active	30		Active	Active	15	inactive	176	Active	inactive	300			300	Activity (Mus musculus [13]): inactive
COc1ccc(/C=N/Cc2cccnc2)cc1O		inactive	6.39	Active	30	inactive	Active	30		Active	Active	31	inactive	198	Active	inactive	100	300	100	300	
COc1cc(/C=N/Cc2cccnc2)cc(OC)c1OC			71.7	inactive	100	inactive	Active	100	Non-toxic	Active	inactive	> 10	inactive	> 500	inactive	inactive		30	100		Activity (Mus musculus [2]): Non-toxic; ED50 (Mus musculus [24]): 50.3 mg/kg
O=C1NC(=O)C(c2ccccc2)(c2ccccc2)N1		inactive		inactive			Active			Active	Active		inactive		Active						
C(=C\c1ccccc1)/C=N/Cc1cccnc1	inactive	inactive	36.3	Active	30	inactive	inactive	300		inactive	inactive	2.34	inactive	84.8	inactive	inactive	100			100	Activity (Mus musculus [13]): inactive
COc1cc(/C=N/Cc2cccnc2)ccc1O			53	inactive	100		Active	30	Non-toxic	Active	Active	3.31		176	inactive			30	30	300	ED50 (Mus musculus [23]): 6.44 mg/kg; minimal effective dose (Mus musculus [26]): 30 mg/kg; minimal effective dose (Mus musculus [25]): 30 mg/kg; ED50 (Mus musculus [24]): 14.2 mg/kg
Clc1ccc(/C=N/Cc2cccnc2)cc1		inactive	53	inactive	100	inactive	inactive	100	Non-toxic	Active	inactive	2.35	inactive	125	inactive	inactive		300	100	100	
C/C(=N\Cc1cccnc1)c1ccccc1	inactive	inactive	55.7	inactive	100		Active	30	Non-toxic	Active	Active	> 10		> 500	inactive						Activity (Mus musculus [2]): Non-toxic; ED50 (Mus musculus [23]): 23.2 mg/kg; minimal effective dose (Mus musculus [26]): 30 mg/kg; Activity (Mus musculus [13]): inactive; minimal effective dose (Mus musculus [25]): 30 mg/kg
C(=N\Cc1cccnc1)/c1ccccc1			53	inactive	100	inactive	Active	30		Active	Active	2.1	inactive	112	inactive	inactive	100	100	100	100	ED50 (Mus musculus [24]): 62.4 mg/kg
